Publication PMC12951562, “SH2scan: Mapping SH2 Domain-Ligand Binding Selectivity for Inhibitors and Degraders” (Journal of Medicinal Chemistry, 2026)
Non-standard residues stand in square brackets, D forms with d. Residues, ends and D or L forms follow the SMILES beside them. pY = N[C@@H](Cc1ccc(OP(=O)(O)O)cc1)C(=O)O

Columns and labels:
Assay in all cases: biochemical
Type in all cases: binding
ABL1 = target: T1, ABL1 (Homo sapiens, UniProt P00519)
T1 construct: the DNA-tagged SH2 domain concentrations used in this study were <0.1 nM; made in house; host or cells: HEK293 (transient transfection; unpurified extract)
T1 sequence (P00519 127-217 limits assumed): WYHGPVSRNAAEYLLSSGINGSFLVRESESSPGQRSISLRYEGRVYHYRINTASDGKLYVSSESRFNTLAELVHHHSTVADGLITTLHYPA

STAT1 = target: T2, STAT1 (Homo sapiens, UniProt P42224)
T2 construct: made in house; host or cells: HEK293 (transient transfection), unpurified extract
T2 sequence (P42224 1-750): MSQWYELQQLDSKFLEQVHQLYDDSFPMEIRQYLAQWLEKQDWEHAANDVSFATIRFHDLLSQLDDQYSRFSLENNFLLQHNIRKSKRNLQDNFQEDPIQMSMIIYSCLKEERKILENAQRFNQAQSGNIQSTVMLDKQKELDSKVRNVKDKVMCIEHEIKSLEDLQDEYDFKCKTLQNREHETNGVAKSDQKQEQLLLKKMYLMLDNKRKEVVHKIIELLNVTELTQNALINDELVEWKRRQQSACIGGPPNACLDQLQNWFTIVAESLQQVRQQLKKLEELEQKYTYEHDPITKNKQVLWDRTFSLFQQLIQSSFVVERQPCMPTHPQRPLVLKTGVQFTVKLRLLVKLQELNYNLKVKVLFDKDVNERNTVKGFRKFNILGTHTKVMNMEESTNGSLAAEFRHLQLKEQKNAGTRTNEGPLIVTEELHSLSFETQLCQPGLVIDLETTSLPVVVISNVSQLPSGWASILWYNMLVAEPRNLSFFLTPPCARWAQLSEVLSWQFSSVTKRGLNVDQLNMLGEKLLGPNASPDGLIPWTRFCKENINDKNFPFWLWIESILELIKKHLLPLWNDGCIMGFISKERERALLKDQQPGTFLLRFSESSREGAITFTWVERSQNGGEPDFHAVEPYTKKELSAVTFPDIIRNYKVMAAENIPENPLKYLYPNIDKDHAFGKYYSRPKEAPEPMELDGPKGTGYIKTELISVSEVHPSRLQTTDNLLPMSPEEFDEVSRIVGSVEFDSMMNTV

STAT4 = target: T3, STAT4 (Homo sapiens, UniProt Q14765)
T3 construct: made in house; host or cells: HEK293 (transient transfection), unpurified extract
T3 sequence (Q14765 1-748): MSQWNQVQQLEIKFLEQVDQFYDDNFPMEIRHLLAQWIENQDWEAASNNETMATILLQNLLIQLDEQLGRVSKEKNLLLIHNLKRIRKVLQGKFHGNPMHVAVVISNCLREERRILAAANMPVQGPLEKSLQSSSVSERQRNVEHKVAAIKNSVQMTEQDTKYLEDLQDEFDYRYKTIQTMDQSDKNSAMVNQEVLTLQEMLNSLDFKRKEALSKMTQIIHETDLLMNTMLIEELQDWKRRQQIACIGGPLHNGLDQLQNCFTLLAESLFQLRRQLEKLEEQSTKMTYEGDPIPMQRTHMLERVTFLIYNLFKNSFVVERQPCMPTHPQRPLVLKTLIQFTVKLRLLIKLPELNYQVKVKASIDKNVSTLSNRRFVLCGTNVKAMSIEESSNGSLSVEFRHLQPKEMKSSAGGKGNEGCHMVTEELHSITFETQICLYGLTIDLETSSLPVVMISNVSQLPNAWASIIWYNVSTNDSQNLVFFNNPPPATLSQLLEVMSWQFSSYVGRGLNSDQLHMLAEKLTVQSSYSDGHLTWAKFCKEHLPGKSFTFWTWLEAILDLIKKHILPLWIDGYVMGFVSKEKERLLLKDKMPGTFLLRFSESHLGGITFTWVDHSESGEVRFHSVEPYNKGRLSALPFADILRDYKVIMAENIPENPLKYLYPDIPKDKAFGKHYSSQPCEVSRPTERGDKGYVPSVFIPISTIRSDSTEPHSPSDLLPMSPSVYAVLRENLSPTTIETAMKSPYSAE

For CC(=O)N[C@@H](CCCCN)C(=O)N[C@@H](CCC(=O)O)C(=O)N[C@@H](CCC(=O)O)C(=O)NCC(=O)N[C@@H](Cc1ccc(OP(=O)(O)O)cc1)C(=O)N[C@@H](CCC(=O)O)C(=O)N[C@@H](CC(C)C)C(=O)N1CCC[C@H]1C(=O)N[C@@H](Cc1ccc(O)cc1)C(=O)N[C@@H](CC(N)=O)C(=O)N1CCC[C@H]1C(N)=O [Ac-KEEGpYELPYNP-NH2], the Kd (ABL1) was 28.8 ± 8.13 µM.
Molecule CC(=O)NCC(=O)N[C@@H](Cc1ccc(OP(=O)(O)O)cc1)C(=O)N[C@@H](CC(=O)O)C(=O)N[C@@H](CCCCN)C(=O)N1CCC[C@H]1C(=O)N[C@@H](Cc1c[nH]cn1)C(=O)N[C@H](C(=O)N[C@@H](CC(C)C)C(N)=O)C(C)C [Ac-GpYDKPHVL-NH2] (Ac-G[pY]DKPHVL-NH2) has a Kd (STAT1) of 0.155 ± 0.0382 µM.
CSCC[C@H](NC(=O)[C@H](CC(=O)O)NC(=O)[C@H](Cc1ccc(OP(=O)(O)O)cc1)NC(=O)[C@H](CC(=O)O)NC(=O)[C@H](Cc1ccccc1)NC(=O)[C@H](CO)NC(C)=O)C(=O)N1CCC[C@H]1C(=O)N[C@@H](Cc1c[nH]cn1)C(=O)N[C@H](C(=O)N[C@@H](CC(C)C)C(N)=O)C(C)C [Ac-SFDpYDMPHVL-NH2] (Ac-SFD[pY]DMPHVL-NH2) gave a Kd (STAT4) of 1.28 ± 0.133 µM.
